Measured values as given in patent US7074789B2, “Kinase inhibitors” (Amgen Inc., priority 1999, dated 2006).

Tests used:
Assay type in all cases: biochemical
AKT = target: T1, AKT (Homo sapiens, UniProt Q9Y243); assay: Kinase inhibition assay (33P transfer), AKT; details: Table 2, kinase inhibition class; read-out: AKT3-1
T1 construct: Kinases are expressed as either kinase domains or full length constructs; made in house
Method in brief: (§1)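 Kinase domain or full-length constructs, GST- or polyHis-tagged, expressed in E. coli or baculovirus-High Five cells, sometimes with regulatory polypeptides. Activity measured as 33PO4 transfer from ATP to plate-bound poly(Glu,Tyr) 4:1 or poly(Arg,Ser) 3:1; after incubation, plates washed with 0.5% phosphoric acid and counted by liquid scintillation.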

Kdr = target: T2, Kdr (Homo sapiens, UniProt P35968); assay: Kinase inhibition assay (33P transfer), Kdr; details: read-out: KDR-1
T2 construct: Kinases are expressed as either kinase domains or full length constructs; made in house
Method in brief: as §1

IGFR-1 = target: T3, IGFR-1 (Homo sapiens, UniProt P08069); assay: Kinase inhibition assay, IGFR-1 (Table 2); details: Table 2, kinase inhibition class
T3 construct: Kinases are expressed as either kinase domains or full length constructs; made in house

ErbB4 = target: T4, ErbB4 (Homo sapiens, UniProt Q15303); assay: Kinase inhibition assay (33P transfer), ErbB4; details: read-out: ErbB4-1
T4 construct: Kinases are expressed as either kinase domains or full length constructs; made in house

Src = target: T5, Src (Homo sapiens, UniProt P12931); assay: Kinase inhibition assay (33P transfer), Src; details: Table 6, Src-1 kinase inhibition class
T5 construct: Kinases are expressed as either kinase domains or full length constructs; made in house
Method in brief: (§2)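 IC50: inhibitor concentration lowering 33P incorporation into immobilised substrate by 50%. Label transferred from ATP to poly(Glu,Tyr) 4:1 or poly(Arg,Ser) 3:1 is measured after a 0.5% phosphoric acid wash by liquid scintillation.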

Hck-1 = target: T6, Hck-1 (Homo sapiens, UniProt P08631); assay: Kinase inhibition assay (33P transfer), Hck; details: Table 6, Hck-1 kinase inhibition class
T6 construct: Kinases are expressed as either kinase domains or full length constructs; made in house

Ret-1 = target: T7, Ret-1 (Homo sapiens, UniProt P07949); assay: Kinase inhibition assay (33P transfer), Ret; details: Table 6, Ret-1 kinase inhibition class
T7 construct: Kinases are expressed as either kinase domains or full length constructs; made in house

Fyn = target: T8, Fyn (Homo sapiens, UniProt P06241); assay: Kinase inhibition assay (33P transfer), Fyn; details: read-out: Fyn-1
T8 construct: Kinases are expressed as either kinase domains or full length constructs; made in house
Method in brief: as §2

Zap-70 = target: T9, Zap-70 (Homo sapiens, UniProt P43403); assay: Kinase inhibition assay (33P transfer), Zap-70; details: read-out: Zap-1
T9 construct: Kinases are expressed as either kinase domains or full length constructs; made in house
T9 sequence (P43403 1-619): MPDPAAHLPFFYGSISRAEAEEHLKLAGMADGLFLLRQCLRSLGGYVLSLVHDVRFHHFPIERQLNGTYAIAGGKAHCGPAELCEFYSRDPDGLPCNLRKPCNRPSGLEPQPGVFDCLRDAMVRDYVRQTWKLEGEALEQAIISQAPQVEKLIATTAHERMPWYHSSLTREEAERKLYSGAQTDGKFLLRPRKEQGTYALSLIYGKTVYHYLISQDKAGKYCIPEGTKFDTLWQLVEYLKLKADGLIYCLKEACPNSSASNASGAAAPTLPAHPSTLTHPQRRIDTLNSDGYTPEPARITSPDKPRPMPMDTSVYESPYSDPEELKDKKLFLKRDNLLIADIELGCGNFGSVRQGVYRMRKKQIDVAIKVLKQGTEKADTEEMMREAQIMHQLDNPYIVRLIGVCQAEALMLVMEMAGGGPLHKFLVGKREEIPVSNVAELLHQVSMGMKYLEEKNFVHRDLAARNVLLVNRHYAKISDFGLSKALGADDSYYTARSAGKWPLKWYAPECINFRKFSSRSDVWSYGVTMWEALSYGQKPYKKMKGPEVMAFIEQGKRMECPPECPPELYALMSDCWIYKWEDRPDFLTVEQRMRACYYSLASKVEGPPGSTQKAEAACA
Method in brief: as §1

c-Met = target: T10, c-Met (Homo sapiens, UniProt P08581); assay: Kinase inhibition assay (33P transfer), c-Met; details: Table 2, kinase inhibition class; read-out: Met-1
T10 construct: Kinases are expressed as either kinase domains or full length constructs; made in house
Method in brief: as §2

ErbB2 = target: T11, ErbB2 (Homo sapiens, UniProt P04626); assay: Kinase inhibition assay (33P transfer), ErbB2; details: read-out: ErbB2-2
T11 construct: Kinases are expressed as either kinase domains or full length constructs; made in house
Method in brief: as §2

Lyn = target: T12, Lyn (Homo sapiens, UniProt P07948); assay: Kinase inhibition assay (33P transfer), Lyn; details: Table 6, Lyn-1 kinase inhibition class
T12 construct: Kinases are expressed as either kinase domains or full length constructs; made in house
Method in brief: as §2

Lck = target: T13, Lck (Homo sapiens, UniProt P06239); assay: Kinase inhibition assay (33P transfer), Lck; details: read-out: Lck-1
T13 construct: Kinases are expressed as either kinase domains or full length constructs; made in house
Method in brief: as §1

Tek = target: T14, Tek (Homo sapiens, UniProt Q02763); assay: Kinase inhibition assay (33P transfer), Tek; details: read-out: Tek-1
T14 construct: Kinases are expressed as either kinase domains or full length constructs; made in house
Method in brief: as §2

Flt-1 = target: T15, Flt-1 (Homo sapiens, UniProt P17948); assay: Kinase inhibition assay (33P transfer), Flt-1
T15 construct: Kinases are expressed as either kinase domains or full length constructs; made in house
Method in brief: as §2

FGFR1 = target: T16, FGFR1 (Homo sapiens, UniProt P11362); assay: Kinase inhibition assay (33P transfer), FGFR1; details: read-out: FGFR1-1
T16 construct: Kinases are expressed as either kinase domains or full length constructs; made in house

PDGFRB = target: T17, PDGFRB (Homo sapiens, UniProt P09619); assay: Kinase inhibition assay (33P transfer), PDGFRB; details: read-out: PDGFRB-1
T17 construct: Kinases are expressed as either kinase domains or full length constructs; made in house

EGFR = target: T18, EGFR (Homo sapiens, UniProt P00533); assay: Kinase inhibition assay (33P transfer), EGFR; details: Table 2, kinase inhibition class; read-out: EGFR-1
T18 construct: Kinases are expressed as either kinase domains or full length constructs; made in house
Method in brief: as §2

Itk = target: T19, Itk (Homo sapiens, UniProt Q08881); assay: Kinase inhibition assay (33P transfer), Itk; details: read-out: Itk-1
T19 construct: Kinases are expressed as either kinase domains or full length constructs; made in house
T19 sequence (Q08881 1-620): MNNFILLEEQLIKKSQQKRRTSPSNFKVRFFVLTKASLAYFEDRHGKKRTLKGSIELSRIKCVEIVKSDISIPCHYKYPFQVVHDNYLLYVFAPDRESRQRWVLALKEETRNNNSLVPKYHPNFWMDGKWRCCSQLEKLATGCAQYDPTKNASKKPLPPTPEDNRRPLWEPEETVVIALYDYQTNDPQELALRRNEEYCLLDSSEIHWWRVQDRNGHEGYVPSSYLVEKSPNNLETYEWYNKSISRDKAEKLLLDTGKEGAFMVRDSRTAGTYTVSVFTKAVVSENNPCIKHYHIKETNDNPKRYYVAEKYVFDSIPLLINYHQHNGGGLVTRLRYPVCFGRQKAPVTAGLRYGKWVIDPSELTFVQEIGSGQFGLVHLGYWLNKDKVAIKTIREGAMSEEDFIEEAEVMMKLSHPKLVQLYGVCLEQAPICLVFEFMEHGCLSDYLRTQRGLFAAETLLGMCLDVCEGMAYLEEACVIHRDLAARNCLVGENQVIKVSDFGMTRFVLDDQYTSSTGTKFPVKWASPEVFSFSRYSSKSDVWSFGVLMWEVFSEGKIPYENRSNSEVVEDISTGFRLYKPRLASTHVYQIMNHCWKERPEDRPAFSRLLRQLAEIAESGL
Method in brief: as §2

T5 sequence (P12931 whole entry, species assumed, the tested form may be a part): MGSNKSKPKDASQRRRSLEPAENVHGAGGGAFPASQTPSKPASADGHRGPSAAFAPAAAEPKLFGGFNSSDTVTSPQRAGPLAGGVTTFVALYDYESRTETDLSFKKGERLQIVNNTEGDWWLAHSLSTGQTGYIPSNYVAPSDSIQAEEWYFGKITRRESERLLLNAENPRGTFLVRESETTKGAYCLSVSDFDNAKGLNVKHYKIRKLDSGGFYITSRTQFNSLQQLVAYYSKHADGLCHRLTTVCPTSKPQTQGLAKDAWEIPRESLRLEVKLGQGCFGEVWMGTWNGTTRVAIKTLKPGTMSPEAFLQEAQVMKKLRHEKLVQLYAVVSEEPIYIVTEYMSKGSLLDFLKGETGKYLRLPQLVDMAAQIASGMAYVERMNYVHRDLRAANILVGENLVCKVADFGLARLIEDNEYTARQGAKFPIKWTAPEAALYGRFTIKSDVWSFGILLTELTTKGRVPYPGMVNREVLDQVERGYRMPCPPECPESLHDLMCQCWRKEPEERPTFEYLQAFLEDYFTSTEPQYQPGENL
T13 sequence (P06239 whole entry, species assumed, the tested form may be a part): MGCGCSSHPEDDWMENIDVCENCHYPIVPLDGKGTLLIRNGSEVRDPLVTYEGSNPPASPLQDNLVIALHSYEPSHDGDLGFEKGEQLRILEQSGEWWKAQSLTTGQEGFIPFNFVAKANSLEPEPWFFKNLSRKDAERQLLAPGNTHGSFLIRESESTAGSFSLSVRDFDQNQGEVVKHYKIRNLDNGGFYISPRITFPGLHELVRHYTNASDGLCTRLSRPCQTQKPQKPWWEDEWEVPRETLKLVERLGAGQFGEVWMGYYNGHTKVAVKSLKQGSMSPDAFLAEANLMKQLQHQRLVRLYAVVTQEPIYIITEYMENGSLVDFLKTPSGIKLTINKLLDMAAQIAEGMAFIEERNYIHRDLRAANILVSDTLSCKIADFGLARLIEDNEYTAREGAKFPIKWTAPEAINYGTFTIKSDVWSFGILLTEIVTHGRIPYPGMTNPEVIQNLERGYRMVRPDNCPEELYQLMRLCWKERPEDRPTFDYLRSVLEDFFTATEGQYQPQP
T12 sequence (P07948 whole entry, species assumed, the tested form may be a part): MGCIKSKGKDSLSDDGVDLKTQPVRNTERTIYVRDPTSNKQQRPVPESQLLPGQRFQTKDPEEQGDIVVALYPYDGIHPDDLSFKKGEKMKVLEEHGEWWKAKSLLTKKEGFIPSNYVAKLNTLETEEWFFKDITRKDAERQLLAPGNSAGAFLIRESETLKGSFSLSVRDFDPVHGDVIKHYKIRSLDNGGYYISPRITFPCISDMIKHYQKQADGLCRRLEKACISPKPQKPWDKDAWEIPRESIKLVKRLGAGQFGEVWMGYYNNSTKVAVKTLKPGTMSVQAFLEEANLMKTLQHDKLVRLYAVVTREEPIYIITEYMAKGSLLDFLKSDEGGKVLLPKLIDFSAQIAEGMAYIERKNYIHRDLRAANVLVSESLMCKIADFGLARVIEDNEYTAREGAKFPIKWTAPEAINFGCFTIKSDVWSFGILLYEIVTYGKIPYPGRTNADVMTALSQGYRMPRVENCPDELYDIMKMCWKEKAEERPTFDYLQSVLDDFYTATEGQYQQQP
T4 sequence (Q15303 26-1308, species assumed): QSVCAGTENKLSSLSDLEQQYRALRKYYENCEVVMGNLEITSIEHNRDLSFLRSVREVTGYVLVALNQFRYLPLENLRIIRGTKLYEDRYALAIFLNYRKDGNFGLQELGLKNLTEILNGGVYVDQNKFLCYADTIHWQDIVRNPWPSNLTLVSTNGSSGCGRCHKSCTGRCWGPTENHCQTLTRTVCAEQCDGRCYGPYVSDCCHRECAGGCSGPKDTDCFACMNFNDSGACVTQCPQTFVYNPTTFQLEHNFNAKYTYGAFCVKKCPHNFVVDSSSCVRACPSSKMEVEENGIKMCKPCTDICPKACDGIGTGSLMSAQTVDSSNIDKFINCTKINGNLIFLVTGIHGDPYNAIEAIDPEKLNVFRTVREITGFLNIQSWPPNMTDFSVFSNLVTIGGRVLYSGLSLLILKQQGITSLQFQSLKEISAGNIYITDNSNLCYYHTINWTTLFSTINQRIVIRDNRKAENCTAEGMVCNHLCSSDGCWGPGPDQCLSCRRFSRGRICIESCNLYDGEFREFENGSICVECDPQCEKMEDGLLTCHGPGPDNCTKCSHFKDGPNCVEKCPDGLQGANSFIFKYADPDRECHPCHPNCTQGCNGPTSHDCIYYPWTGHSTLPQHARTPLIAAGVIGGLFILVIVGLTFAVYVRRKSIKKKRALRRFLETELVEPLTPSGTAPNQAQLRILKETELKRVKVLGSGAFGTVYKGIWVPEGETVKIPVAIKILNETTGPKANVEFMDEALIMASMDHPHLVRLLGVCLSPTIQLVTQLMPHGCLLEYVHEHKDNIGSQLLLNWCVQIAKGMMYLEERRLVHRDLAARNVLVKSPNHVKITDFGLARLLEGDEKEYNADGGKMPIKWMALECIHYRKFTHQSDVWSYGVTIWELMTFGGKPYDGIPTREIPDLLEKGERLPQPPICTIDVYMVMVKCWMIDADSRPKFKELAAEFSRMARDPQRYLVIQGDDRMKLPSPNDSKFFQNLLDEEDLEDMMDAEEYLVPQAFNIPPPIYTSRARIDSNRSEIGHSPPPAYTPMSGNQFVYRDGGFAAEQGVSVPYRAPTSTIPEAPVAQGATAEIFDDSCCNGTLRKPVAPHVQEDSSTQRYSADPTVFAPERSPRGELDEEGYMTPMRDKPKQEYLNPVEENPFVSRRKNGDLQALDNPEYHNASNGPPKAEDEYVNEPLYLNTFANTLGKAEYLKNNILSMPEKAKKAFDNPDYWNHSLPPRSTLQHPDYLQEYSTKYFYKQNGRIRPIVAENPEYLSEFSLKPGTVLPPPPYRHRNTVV
T1 sequence (Q9Y243 whole entry, the tested form may be a part): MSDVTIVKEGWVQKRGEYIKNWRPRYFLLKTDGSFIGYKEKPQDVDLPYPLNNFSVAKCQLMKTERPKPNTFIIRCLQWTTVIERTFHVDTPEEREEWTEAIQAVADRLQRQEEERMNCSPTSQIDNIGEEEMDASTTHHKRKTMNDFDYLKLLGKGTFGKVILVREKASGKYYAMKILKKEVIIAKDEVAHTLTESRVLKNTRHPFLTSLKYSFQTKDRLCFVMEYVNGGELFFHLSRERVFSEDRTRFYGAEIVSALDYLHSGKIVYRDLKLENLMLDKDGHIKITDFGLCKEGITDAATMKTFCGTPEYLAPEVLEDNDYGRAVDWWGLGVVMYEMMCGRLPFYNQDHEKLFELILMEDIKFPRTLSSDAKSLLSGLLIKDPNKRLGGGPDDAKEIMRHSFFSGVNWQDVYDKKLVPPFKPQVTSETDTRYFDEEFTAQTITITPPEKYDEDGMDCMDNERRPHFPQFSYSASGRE
T11 sequence (P04626 23-1255, species assumed): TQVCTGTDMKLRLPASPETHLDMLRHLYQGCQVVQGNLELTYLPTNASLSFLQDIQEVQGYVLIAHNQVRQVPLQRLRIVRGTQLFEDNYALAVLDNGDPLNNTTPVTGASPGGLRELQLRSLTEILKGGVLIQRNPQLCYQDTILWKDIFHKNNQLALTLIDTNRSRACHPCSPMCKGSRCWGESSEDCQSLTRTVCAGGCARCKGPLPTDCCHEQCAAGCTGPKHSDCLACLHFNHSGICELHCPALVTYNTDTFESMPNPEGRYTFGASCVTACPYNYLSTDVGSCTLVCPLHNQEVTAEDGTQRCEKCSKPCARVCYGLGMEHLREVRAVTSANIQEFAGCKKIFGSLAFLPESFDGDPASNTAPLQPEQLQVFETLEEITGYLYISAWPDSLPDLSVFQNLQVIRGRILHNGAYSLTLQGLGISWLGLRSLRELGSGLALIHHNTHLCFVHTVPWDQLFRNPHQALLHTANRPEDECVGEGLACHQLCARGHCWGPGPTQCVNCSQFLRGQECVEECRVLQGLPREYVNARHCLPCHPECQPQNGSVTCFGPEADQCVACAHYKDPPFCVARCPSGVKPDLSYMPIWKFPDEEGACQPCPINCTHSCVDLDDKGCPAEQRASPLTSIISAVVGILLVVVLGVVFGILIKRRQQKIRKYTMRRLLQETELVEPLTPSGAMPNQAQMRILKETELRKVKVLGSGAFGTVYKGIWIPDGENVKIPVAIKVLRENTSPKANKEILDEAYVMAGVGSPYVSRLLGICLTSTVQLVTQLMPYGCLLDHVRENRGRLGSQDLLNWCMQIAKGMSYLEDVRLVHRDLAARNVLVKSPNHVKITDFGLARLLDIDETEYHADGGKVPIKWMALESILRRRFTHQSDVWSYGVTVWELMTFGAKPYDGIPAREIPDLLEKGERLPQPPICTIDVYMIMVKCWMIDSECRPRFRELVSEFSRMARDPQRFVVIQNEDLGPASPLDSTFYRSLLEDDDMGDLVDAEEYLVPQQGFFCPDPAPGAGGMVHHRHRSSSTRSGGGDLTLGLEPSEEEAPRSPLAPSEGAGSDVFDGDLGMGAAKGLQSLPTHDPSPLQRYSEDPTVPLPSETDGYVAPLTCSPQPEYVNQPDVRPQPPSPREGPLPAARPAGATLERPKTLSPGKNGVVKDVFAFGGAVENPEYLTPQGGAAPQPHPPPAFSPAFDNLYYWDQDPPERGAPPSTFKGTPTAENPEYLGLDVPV
T6 sequence (P08631 whole entry, the tested form may be a part): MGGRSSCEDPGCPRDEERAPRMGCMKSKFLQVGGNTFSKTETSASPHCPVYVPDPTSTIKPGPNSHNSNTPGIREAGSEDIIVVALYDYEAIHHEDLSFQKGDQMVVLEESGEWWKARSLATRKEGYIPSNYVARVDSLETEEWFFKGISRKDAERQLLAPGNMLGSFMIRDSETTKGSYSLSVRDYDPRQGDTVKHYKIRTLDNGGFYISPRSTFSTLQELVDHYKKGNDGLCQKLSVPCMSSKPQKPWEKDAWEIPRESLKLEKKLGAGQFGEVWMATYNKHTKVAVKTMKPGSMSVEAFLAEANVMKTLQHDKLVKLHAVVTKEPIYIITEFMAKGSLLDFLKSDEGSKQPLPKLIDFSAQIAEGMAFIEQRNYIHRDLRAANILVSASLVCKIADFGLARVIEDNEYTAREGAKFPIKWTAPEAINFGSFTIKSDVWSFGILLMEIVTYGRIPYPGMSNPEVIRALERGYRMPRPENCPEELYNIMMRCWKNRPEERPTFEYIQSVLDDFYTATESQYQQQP

SMILES | IC50 (AKT) [µM] | IC50 (Kdr) [µM] | IC50 (IGFR-1) [µM] | IC50 (ErbB4) [µM] | IC50 (Src) [µM] | IC50 (Hck-1) [µM] | IC50 (Ret-1) [µM] | IC50 (Fyn) [µM] | IC50 (Zap-70) [µM] | IC50 (c-Met) [µM] | IC50 (ErbB2) [µM] | IC50 (Lyn) [µM] | IC50 (Lck) [µM] | IC50 (Tek) [µM] | IC50 (Flt-1) [µM] | IC50 (FGFR1) [µM] | IC50 (PDGFRB) [µM] | IC50 (EGFR) [µM] | IC50 (Itk) [µM]
COc1cc(Nc2ncnc(-n3c(NCc4ccccc4Cl)nc4ccccc43)n2)cc(OC)c1OC [Compound 943] | > 8.69 | < 0.772 | > 8.69 | 6.76 to 8.69 | > 8.69 | > 8.69 | < 0.772 | > 8.69 | 4.63 to 6.76 | > 8.69 | > 8.69 | 0.772 to 4.63 | 0.772 to 4.63 | 6.76 to 8.69 | 0.772 to 4.63 | 0.772 to 4.63 | < 0.772 | > 8.69 | > 8.69
COc1cc(Nc2ncnc(-n3c(NCc4ccccn4)nc4ccccc43)n2)cc(OC)c1OCCn1ccnn1 [Compound 942] | > 7.96 | < 0.707 | 4.24 to 6.19 | > 7.96 | > 7.96 | > 7.96 | < 0.707 | > 7.96 | > 7.96 | > 7.96 | > 7.96 | < 0.707 | 4.24 to 6.19 | > 7.96 | < 0.707 | < 0.707 | < 0.707 | > 7.96 | > 7.96
COc1cc(Nc2ncnc(-n3c(NCc4ccccc4C)nc4ccccc43)n2)cc(OC)c1OC [Compound 511] | > 9.04 | < 0.804 | > 9.04 | 0.804 to 4.82 | > 9.04 | > 9.04 | < 0.804 | > 9.04 | > 9.04 | > 9.04 | 7.03 to 9.04 | 0.804 to 4.82 | < 0.804 | 7.03 to 9.04 | < 0.804 | < 0.804 | < 0.804 | > 9.04 | > 9.04
COc1cc(Nc2ncnc(-n3c(NCc4ccc(F)cc4)nc4ccccc43)n2)cc(OC)c1OC [Compound 514] | > 8.97 | < 0.798 | > 8.97 | > 8.97 | > 8.97 | > 8.97 | < 0.798 | > 8.97 | > 8.97 | > 8.97 | > 8.97 | > 8.97 | > 8.97 | > 8.97 | < 0.798 | < 0.798 | < 0.798 | > 8.97 | > 8.97
COc1cc(Nc2ncnc(-n3c(NCCc4ccccc4)nc4ccccc43)n2)cc(OC)c1OC [Compound 509] | > 9.04 | < 0.804 | > 9.04 | 0.804 to 4.82 | > 9.04 | > 9.04 | < 0.804 | > 9.04 | > 9.04 | > 9.04 | 4.82 to 7.03 | 0.804 to 4.82 | 0.804 to 4.82 | 7.03 to 9.04 | 0.804 to 4.82 | 0.804 to 4.82 | 0.804 to 4.82 | 0.804 to 4.82 | 4.82 to 7.03
